Read-outs that look alike come from different tables or passages of the source.
What was measured:
[1] = test system: premature labor; details: compared with ritodrine; cited from earlier work
[2] = target: T1, uterine OT receptors (Rattus norvegicus, UniProt P70536); test: Radioligand binding assay: competition of [3H]oxytocin binding to a crude membrane preparation of uteri from DES-treated rats; details: 1 nM [3H]OT; 60 minutes; 22° C.; pH 7.4; rat uterus membranes
T1 construct: from tissue; host or cells: rat uterus (DES-treated), crude membrane preparation
T1 sequence (P70536 1-388): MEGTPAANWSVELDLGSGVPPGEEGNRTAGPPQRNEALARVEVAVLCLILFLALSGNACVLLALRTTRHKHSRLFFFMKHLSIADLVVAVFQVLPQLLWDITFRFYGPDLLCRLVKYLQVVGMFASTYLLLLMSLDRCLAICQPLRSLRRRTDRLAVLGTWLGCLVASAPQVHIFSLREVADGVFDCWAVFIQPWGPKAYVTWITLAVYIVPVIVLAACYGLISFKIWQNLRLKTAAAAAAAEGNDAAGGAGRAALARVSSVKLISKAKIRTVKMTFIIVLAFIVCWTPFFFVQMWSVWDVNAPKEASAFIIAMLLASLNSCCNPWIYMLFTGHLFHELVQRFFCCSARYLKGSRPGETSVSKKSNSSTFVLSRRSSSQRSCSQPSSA
Description: The high affinity binding of [^3 H] Oxytocin (OT)([tyrosyl, 3,5-[^3 H]OT; 30-60 Ci/mmol; New England Nuclear. Boston, Mass.) to uterine OT receptors was based on an assay (Fuchs, A-R; Fuchs, F; Soloff, MS. 1985 J. Clin. Endocrinol. Metab. 60:37) using a crude membrane preparation of uteri taken from diethylstilbestrol dipropionate (DES)-treated (0.3 mg/kg, ip; 18-24) rats. Competition studies were conducted at equilibrium (60 minutes; 22° C.) using 1 nM[^3 H]OT in the following assay buffer: 50 mM Tris-HCl, 5 mM MgCl2, and 0.1% BSA, pH 7.4. Nonspecific binding (10% of the total binding) was determined using 1 μM unlabeled OT and the binding reaction was terminated by filtration through glass fiber filters using a cell harvester (model 7019, Skatron, Inc., Sterling, Va.). IC50 (the concentration of tested compound that inhibits 50% of OT) was reported, unless otherwise noted.
IC50 values were determined for both [^3 H]OT and [^3 H]AVP binding assays by linear regression of the relation log concentration of compound vs. percent inhibition of specific binding.

[3] = cited from earlier work

For `CCO` [Ethanol], the “effectiveness in preventing premature labor (in words)” value [1] is given as “as effective as ritodrine in preventing premature labor” and the “reduction in the incidence of fetal respiratory distress (in words)” value [1] is given as “does not produce a corresponding reduction in the incidence of fetal respiratory distress that administration of ritodrine does”.

In the case of `O=C(Cc1ccc2c(c1)OCO2)N1CCC2(C=Cc3ccccc32)CC1` [Example 10], the IC50 [2] is reported as 3700 nM.

Compound `O=C(Nc1ccc(CC(=O)N2CCC3(C=Cc4ccccc43)CC2)cc1)c1ccc2[nH]cnc2c1` [Example 12] has an IC50 [2] of 150 nM.

In the case of `CC(NCCc1ccc(O)cc1)C(O)c1ccc(O)cc1` (stereo not drawn) [Ritodrine], the “side effects (in words)” value ([3]; tocolytic use, in the mother) is given as “causes a number of cardiovascular and metabolic side effects in the mother, including tachycardia, increased renin secretion, hyperglycemia (and reactive hypoglycemia in the infant)”.

In the case of `O=S(=O)([O-])[O-].[Mg+2]` [Magnesium sulfate], the “toxicity at plasma concentrations above the therapeutic range (in words)” value ([3]; above 4 to 8 mg/dL plasma) is listed as “can cause inhibition of cardiac conduction and neuromuscular transmission, respiratory depression and cardiac arrest” and the “therapeutic range of plasma concentrations” value ([3]; plasma) is listed as 4 to 8 mg/dL.

For `CC(C)(C)NCC(O)c1ccc(O)c(CO)c1` (stereo not drawn) [albuterol], the “side effects (in words)” value ([3]; in vivo) is given as “side effects similar to those of ritodrine”.

In the case of `O=C(Nc1ccc(CC(=O)N2CCC3(C=Cc4ccccc43)CC2)cc1)c1ccc2[nH]ccc2c1` [Example 15], the IC50 [2] is reported as 310 nM.

Work on `O=C(Nc1ccc(CC(=O)N2CCC3(C=Cc4ccccc43)CC2)cc1)c1ccc2[nH]nnc2c1` [Example 16] yielded an IC50 [2] of 520 nM.

For `CC(C)(C)NCC(O)c1cc(O)cc(O)c1` (stereo not drawn) [terbutaline], the “side effects (in words)” value ([3]; tocolytic use, in the mother) is listed as “side effects similar to those of ritodrine”.

For `O=C(CCc1c[nH]cn1)Nc1ccc(CC(=O)N2CCC3(CCc4ccccc43)CC2)cc1` [Example 14], the IC50 [2] was 170 nM.

Reference: patent US5670509A, “Tocolytic oxytocin receptor antagonists” (priority 1995, dated 1997)
